Data as given in US8071605B2, “Piperidine compounds for use in the treatment of bacterial infections” (AstraZeneca AB, priority 2008, dated 2011).
In brackets after ≈: the same amount, converted by molar mass.

What was measured:
Streptococcus pneumoniae = experiment: Bacterial susceptibility testing in liquid media (MIC); format: cell-based; conditions: against Streptococcus pneumoniae; lowest concentration reducing growth by 80% or more
Description: Compounds may be tested for antimicrobial activity by susceptibility testing in liquid media. Compounds may be dissolved in dimethylsulfoxide and tested in 10 doubling dilutions in the susceptibility assays. The organisms used in the assay may be grown overnight on suitable agar media and then suspended in a liquid medium appropriate for the growth of the organism. The suspension can be a 0.5 McFarland and a further 1 in 10 dilution can be made into the same liquid medium to prepare the final organism suspension in 100 μL. Plates can be incubated under appropriate conditions at 37° C. for 24 hrs prior to reading. The Minimum Inhibitory Concentration (MIC) may be determined as the lowest drug concentration able to reduce growth by 80% or more.

S. aureus GyrB ATPase = S. aureus GyrB ATPase (Staphylococcus aureus, UniProt P0A0K8); experiment: S. aureus GyrB ATPase inhibition (ammonium molybdate/malachite green phosphate detection); format: biochemical; conditions: compound concentration of 1 μM (unless otherwise noted)
Sequence of S. aureus GyrB ATPase (P0AES4 whole entry): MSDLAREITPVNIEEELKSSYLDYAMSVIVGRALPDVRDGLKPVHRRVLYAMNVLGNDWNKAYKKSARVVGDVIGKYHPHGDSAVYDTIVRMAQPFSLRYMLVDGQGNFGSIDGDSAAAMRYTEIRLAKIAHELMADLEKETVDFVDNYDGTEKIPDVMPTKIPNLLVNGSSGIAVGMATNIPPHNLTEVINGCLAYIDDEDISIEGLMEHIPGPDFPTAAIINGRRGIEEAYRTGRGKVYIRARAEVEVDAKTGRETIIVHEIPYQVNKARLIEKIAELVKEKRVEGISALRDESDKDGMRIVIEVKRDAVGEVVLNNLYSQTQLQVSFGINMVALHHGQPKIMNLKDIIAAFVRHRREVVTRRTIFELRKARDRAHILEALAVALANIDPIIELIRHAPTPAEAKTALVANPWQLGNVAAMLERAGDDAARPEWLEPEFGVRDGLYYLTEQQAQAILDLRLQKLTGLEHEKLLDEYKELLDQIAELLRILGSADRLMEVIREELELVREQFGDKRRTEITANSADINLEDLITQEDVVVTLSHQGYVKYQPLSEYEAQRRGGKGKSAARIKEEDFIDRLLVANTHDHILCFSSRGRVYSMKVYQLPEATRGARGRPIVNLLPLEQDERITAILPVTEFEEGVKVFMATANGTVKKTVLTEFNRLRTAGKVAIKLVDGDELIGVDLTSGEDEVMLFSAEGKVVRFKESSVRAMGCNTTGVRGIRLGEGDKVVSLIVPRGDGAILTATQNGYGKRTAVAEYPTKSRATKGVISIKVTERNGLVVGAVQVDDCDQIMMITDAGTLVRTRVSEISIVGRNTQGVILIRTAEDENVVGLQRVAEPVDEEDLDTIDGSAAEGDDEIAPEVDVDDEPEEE
Sequence of S. aureus GyrB ATPase (P0A0K8 whole entry): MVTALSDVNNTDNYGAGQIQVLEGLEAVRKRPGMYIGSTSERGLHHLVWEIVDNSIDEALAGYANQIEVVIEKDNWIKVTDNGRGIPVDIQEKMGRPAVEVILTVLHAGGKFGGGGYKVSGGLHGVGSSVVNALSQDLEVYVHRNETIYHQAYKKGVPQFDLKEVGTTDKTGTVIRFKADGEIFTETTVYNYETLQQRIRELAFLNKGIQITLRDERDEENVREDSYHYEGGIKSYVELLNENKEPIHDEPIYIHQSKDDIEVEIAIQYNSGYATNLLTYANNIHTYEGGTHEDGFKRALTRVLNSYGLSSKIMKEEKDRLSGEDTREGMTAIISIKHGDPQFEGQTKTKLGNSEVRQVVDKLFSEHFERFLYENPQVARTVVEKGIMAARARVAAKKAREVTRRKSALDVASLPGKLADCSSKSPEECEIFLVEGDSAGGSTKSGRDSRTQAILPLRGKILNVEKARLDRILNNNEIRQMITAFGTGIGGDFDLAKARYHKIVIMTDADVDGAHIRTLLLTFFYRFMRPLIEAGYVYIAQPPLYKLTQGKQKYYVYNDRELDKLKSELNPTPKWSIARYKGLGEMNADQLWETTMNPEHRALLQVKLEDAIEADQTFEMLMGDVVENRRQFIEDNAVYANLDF
In short: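 S. aureus GyrB (250 pM) with E. coli GyrA (250 pM), 250 μM ATP and sheared DNA in pH 7.5 Hepes; phosphate release by malachite green/molybdate at 650 nm. Values are percent inhibition at 1 μM compound unless noted, against 2% DMSO and EDTA controls.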

COCCn1ccnc1-c1nc(N2CC[C@@H](NC(=O)c3[nH]c(C)c(Cl)c3Cl)[C@@H](C)C2)sc1C(=O)O [Example 23]
MIC (Streptococcus pneumoniae): 0.78 µg/mL (≈ 1.44 µM) | inhibition at 1 µM (S. aureus GyrB ATPase): 100%
